The record followed here is US20230113037A1 (Bayer Aktiengesellschaft, priority 2019, published 2023).

Values joined by “and” are separate entries in the source; they are usually repeats but may differ in a detail not shown here. Identical values can stand only once.

This test concerns the target T1, AHR (Homo sapiens, UniProt P35869).
T1 construct: U87 MG glioblastoma cells (ATCC #HTB-14) endogenously expressing AHR; endogenous in cells; host or cells: U87 MG glioblastoma cells (ATCC #HTB-14)
T1 sequence (P35869 11-848): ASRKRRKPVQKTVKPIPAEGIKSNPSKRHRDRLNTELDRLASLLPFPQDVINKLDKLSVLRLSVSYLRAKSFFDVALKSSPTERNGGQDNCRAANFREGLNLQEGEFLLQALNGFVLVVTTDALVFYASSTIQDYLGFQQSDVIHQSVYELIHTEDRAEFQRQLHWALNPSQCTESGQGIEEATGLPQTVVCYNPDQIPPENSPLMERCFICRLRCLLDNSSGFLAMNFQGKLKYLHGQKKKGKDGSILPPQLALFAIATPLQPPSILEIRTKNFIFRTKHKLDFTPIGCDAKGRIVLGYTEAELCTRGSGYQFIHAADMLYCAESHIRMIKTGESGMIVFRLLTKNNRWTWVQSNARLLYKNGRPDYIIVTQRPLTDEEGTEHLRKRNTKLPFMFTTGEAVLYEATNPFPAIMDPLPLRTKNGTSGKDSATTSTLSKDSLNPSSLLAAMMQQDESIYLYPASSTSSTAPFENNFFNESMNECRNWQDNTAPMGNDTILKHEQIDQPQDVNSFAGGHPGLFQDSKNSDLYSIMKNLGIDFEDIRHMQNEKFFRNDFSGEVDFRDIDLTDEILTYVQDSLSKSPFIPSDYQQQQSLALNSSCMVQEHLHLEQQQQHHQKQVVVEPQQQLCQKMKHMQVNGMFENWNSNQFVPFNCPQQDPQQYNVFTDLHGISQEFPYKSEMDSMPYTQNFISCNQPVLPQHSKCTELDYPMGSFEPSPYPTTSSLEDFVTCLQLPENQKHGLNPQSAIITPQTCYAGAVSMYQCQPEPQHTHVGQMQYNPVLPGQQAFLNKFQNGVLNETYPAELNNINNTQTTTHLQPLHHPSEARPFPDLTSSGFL
Put plainly: In vitro assay 1: antagonism in human cell line (AHR transactivation, firefly luciferase reporter, kynurenic acid prestimulated). The conditions noted are these: AHR Antagonism Human IC50 [M]. It is filed as cell-based. As to the method: Examples were tested in selected biological assays one or more times. When tested more than once, data are reported as either average values or as median values, wherein • the average value, also referred to as the arithmetic mean value, represents the sum of the values obtained divided by the number of times tested, and • the median value represents the middle number of the group of values when ranked in ascending or descending order. If the number of values in the data set is odd, the median is the middle value. If the number of values in the data set is even, the median is the arithmetic mean of the two middle values.
Transactivation assays were carried out in U87 MG glioblastoma cells (ATCC #HTB-14) endogenously expressing AHR. In addition the cells were stably transfected with an AHR inducible firefly luciferase reporter gene construct that carried AHR-binding sites (DRE) in its promoter and a renilla reporter gene construct with constitutively active promoter. Kynurenic acid is an endogenous AHR activating ligand and was used to prestimulate test cells prior to testing the antagonistic properties of compounds.
As positive inhibition control cells supplemented with 150 μM kynurenic acid were incubated in presence of 5 μM Staurosporin. Normalization was done by positive and negative controls.
Firefly luciferase and Renilla activity was determined by the DualGlo Luciferase Assay System (Promega, #2920). Renilla activity was used to assess toxic effects of compounds.
`O=C1NCCCC[C@H]1Nc1nc2cccc(C(F)(F)F)c2c2nc(-c3cccc(F)c3)nn12` [Example 171, (3R)-3-{[2-(3-fluorophenyl)-10-(trifluoromethyl)[1,2,4]triazolo[1,5-c]quinazolin-5-yl]amino}azepan-2-one] returned an IC50 of 6.2e-08 M. With `CN(C)c1ccccc1-c1nc2c3ccccc3nc(N[C@@H]3CCCCNC3=O)n2n1` [Example 455, (3R)-3-({2-[2-(dimethylamino)phenyl][1,2,4]triazolo[1,5-c]quinazolin-5-yl}amino)azepan-2-one], the IC50 amounted to 1.17e-07 M. Consider `COc1ccc(-c2nc3c4cc(C5CC5)ccc4nc(N[C@@H]4CCCCNC4=O)n3n2)cc1` [Example 547, (3R)-3-{[9-cyclopropyl-2-(4-methoxyphenyl)[1,2,4]triazolo[1,5-c]quinazolin-5-yl]amino}azepan-2-one], for which the IC50 was greater than 5.71e-06 M. Molecule `Cn1cc(-c2nc3c4cccc(C(F)(F)F)c4nc(N[C@@H]4CCNC4=O)n3n2)cn1` [Example 586, (3R)-3-{[2-(1-methyl-1H-pyrazol-4-yl)-7-(trifluoromethyl)[1,2,4]triazolo[1,5-c]quinazolin-5-yl]amino}pyrrolidin-2-one] yielded an IC50 of 2.79e-07 M.

Molecule `O=C1NCCCCCC1Nc1nc2ccccc2c2nc(-c3ccc(Cl)cc3OC(F)F)nn12` (stereo not shown) [Example 529, 3-({2-[4-chloro-2-(difluoromethoxy)phenyl][1,2,4]triazolo[1,5-c]quinazolin-5-yl}amino)azocan-2-one] registered an IC50 of 2.8e-09 M. As for `COc1cccc2c1nc(N[C@@H]1CCCCNC1=O)n1nc(-c3cn[nH]c3)nc21` [Example 755, (3R)-3-{[7-methoxy-2-(1H-pyrazol-4-yl)[1,2,4]triazolo[1,5-c]quinazolin-5-yl]amino}azepan-2-one], the figure is 9.19e-06 M; as for `Nc1ccc(-c2nc3c4ccccc4nc(N[C@@H]4CCCCNC4=O)n3n2)cc1` [Example 620, (3R)-3-{[2-(4-aminophenyl)[1,2,4]triazolo[1,5-c]quinazolin-5-yl]amino}azepan-2-one], 8.44e-08 M. As for `O=C1NCCCC[C@H]1Nc1nc2ccccc2c2nc(-c3ccc(F)cc3F)nn12` [Example 201, (3R)-3-{[2-(2,4-difluorophenyl)[1,2,4]triazolo[1,5-c]quinazolin-5-yl]amino}azepan-2-one], half-maximal inhibition (IC50) was put at 3.56e-10 M.

Molecule `Cn1cc(-c2nc3c4c(C5CC5)cccc4nc(N[C@@H]4CCCCNC4=O)n3n2)cn1` [Example 177, (3R)-3-{[10-cyclopropyl-2-(1-methyl-1H-pyrazol-4-yl)[1,2,4]triazolo[1,5-c]quinazolin-5-yl]amino}azepan-2-one] came in with an IC50 of 7.35e-07 M. Next, `O=C1NCCCC[C@H]1Nc1nc2ccccc2c2nc(-c3ccccc3Cl)nn12` [Example 58, (3R)-3-{[2-(2-chlorophenyl)[1,2,4]triazolo[1,5-c]quinazolin-5-yl]amino}azepan-2-one]: 1.05e-08 M.

As for `CC[C@@H](Nc1nc2ccccc2c2nc(-c3ccc(Cl)cc3OC(F)F)nn12)C(N)=O` [Example 531, (2R)-2-({2-[4-chloro-2-(difluoromethoxy)phenyl][1,2,4]triazolo[1,5-c]quinazolin-5-yl}amino)butanamide], the IC50 amounted to 1.29e-09 M. In turn, `CC[C@@H](Nc1nc2ccccc2c2nc(-c3cccc(Br)c3)nn12)C(N)=O` [Example 445, (2R)-2-{[2-(3-bromophenyl)[1,2,4]triazolo[1,5-c]quinazolin-5-yl]amino}butanamide] returned an IC50 of 9.27e-08 M. Next, `Cc1sccc1-c1nc2c3ccccc3nc(N[C@@H]3CCCCNC3=O)n2n1` [Example 346, (3R)-3-{[2-(2-methylthiophen-3-yl)[1,2,4]triazolo[1,5-c]quinazolin-5-yl]amino}azepan-2-one]: 2.24e-09 M; `COc1ccc(-c2nc3c4ccc(OC)cc4nc(N[C@@H]4CNCCNC4=O)n3n2)cc1` [Example 272, (6R)-6-{[8-methoxy-2-(4-methoxyphenyl)[1,2,4]triazolo[1,5-c]quinazolin-5-yl]amino}-1,4-diazepan-5-one]: 2.77e-06 M; `Cn1cc(-c2nc3c4ccccc4nc(NC4CNCCNC4=O)n3n2)cn1` (single isomer, unassigned) [Example 24, 6-{[2-(1-methyl-1H-pyrazol-4-yl)[1,2,4]triazolo[1,5-c]quinazolin-5-yl]amino}-1,4-diazepan-5-one]: greater than 4e-05 M. Consider `CCCCC(Nc1nc2ccccc2c2nc(-c3cccc(OC(F)(F)F)c3)nn12)C(N)=O` (stereo not shown) [Example 323], for which the IC50 is > 2e-05 M and 1.32e-05 M and 8.31e-06 M. As for `Cc1ccc2c(c1)nc(N[C@@H]1CCCCNC1=O)n1nc(-c3cnn(C)c3)nc21` [Example 147, (3R)-3-{[8-methyl-2-(1-methyl-1H-pyrazol-4-yl)[1,2,4]triazolo[1,5-c]quinazolin-5-yl]amino}azepan-2-one], the figure is 7.53e-07 M; as for `Cn1cc(-c2nc3c4cccc(C5(C(F)(F)F)CC5)c4nc(N[C@@H]4CNCCNC4=O)n3n2)cn1` [Example 430], 3.22e-07 M. Next, `CCOc1ccccc1-c1nc2c3ccccc3nc(N[C@@H]3CCCCNC3=O)n2n1` [Example 198, (3R)-3-{[2-(2-ethoxyphenyl)[1,2,4]triazolo[1,5-c]quinazolin-5-yl]amino}azepan-2-one]: 1.82e-06 M; `CN1CCCC[C@H](Nc2nc3ccccc3c3nc(-c4ccc(Cl)cc4OC(F)F)nn23)C1=O` [Example 530, (3S)-3-({2-[4-chloro-2-(difluoromethoxy)phenyl][1,2,4]triazolo[1,5-c]quinazolin-5-yl}amino)-1-methylazepan-2-one]: greater than 2e-05 M.

`COc1cccc(-c2nc3c4ccc(C)cc4nc(N[C@@H]4CCCCNC4=O)n3n2)c1` [Example 145, (3R)-3-{[2-(3-methoxyphenyl)-8-methyl[1,2,4]triazolo[1,5-c]quinazolin-5-yl]amino}azepan-2-one] displayed an IC50 of 3.17e-08 M.

Take `COc1ccc(-c2nc3c4c(C(C)C)cccc4nc(N[C@@H]4CCCCNC4=O)n3n2)cc1` [Example 726, (3R)-3-{[2-(4-methoxyphenyl)-10-(propan-2-yl)[1,2,4]triazolo[1,5-c]quinazolin-5-yl]amino}azepan-2-one]: the IC50 is 1.09e-05 M.

Turning to `Cn1cc(-c2nc3c4ccc(C(F)(F)F)cc4nc(N[C@@H]4CCCCNC4=O)n3n2)cn1` [Example 227, (3R)-3-{[2-(1-methyl-1H-pyrazol-4-yl)-8-(trifluoromethyl)[1,2,4]triazolo[1,5-c]quinazolin-5-yl]amino}azepan-2-one], the IC50 was 2.65e-06 M.

As for `COc1ccc(-c2nc3c4ccc(C5CC5)cc4nc(N[C@@H]4CCCCNC4=O)n3n2)cc1` [Example 251, (3R)-3-{[8-Cyclopropyl-2-(4-methoxyphenyl)[1,2,4]triazolo[1,5-c]quinazolin-5-yl]amino}azepan-2-one], half-maximal inhibition (IC50) required 3.04e-07 M. As for `O=C1NCCCC[C@H]1Nc1nc2c(C(F)(F)F)cccc2c2nc(-c3nc(C4CC4)cs3)nn12` [Example 747, (3R)-3-{[2-(4-cyclopropyl-1,3-thiazol-2-yl)-7-(trifluoromethyl)[1,2,4]triazolo[1,5-c]quinazolin-5-yl]amino}azepan-2-one], the figure is 1.65e-09 M; as for `COc1cccc(-c2nc3c4ccccc4nc(NC4(C(N)=O)CCCC4)n3n2)c1` [Example 99, 1-{[2-(3-methoxyphenyl)[1,2,4]triazolo[1,5-c]quinazolin-5-yl]amino}cyclopentane-1-carboxamide], 6.78e-08 M; as for `O=C1NCCCC[C@H]1Nc1nc2ccccc2c2nc(-c3ccc(Cl)cc3OC(F)F)nn12` [Example 525, (3R)-3-({2-[4-chloro-2-(difluoromethoxy)phenyl][1,2,4]triazolo[1,5-c]quinazolin-5-yl}amino)azepan-2-one], 9.92e-10 M.

Take `CCNC(=O)C(CC)Nc1nc2ccccc2c2nc(-c3cccc(OC(F)(F)F)c3)nn12` (single isomer, unassigned) [Example 320, N-ethyl-2-({2-[3-(trifluoromethoxy)phenyl][1,2,4]triazolo[1,5-c]quinazolin-5-yl}amino)butanamide]: 1.21e-06 M corresponded to half-maximal inhibition (IC50).
